The values that follow come from paper PMC11062899, “De novo development of small cyclic peptides that are orally bioavailable” (Nature Chemical Biology, 2023).

The target of the assay is human α-thrombin (Homo sapiens, UniProt P00734). Nature of the assay: Sub-library screen for active and permeable cyclic peptides (PAMPA plus thrombin inhibition). In kind it is biochemical. To be noted: crude, slopes normalized to DMSO; for Residual thrombin activity: Top sample: PAMPA acceptor well after 14 h, 5 μM donor; for Residual thrombin activity: Equilibrated sample: donor sample diluted to theoretical equilibrium (1 μM in assay). The essentials: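 Acylated cyclic peptides at 5 μM in PBS pH 7.4 with 5% DMSO were run through PAMPA for 14 h at room temperature. Acceptor wells and a diluted donor sample at 3 μM, representing maximum permeability, were preincubated 10 min with human α-thrombin (6 nM stock). Z-Gly-Gly-Arg-AMC (150 μM stock) fluorescence was then read for 30 min at 25 °C, and inhibition was taken against a no-peptide control.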
In general terms: In PAMPA a lipid-coated filter parts donor from acceptor wells.

`Cc1cccc(C[C@@H]2NC(=O)[C@@H](NC(=O)c3ccc(Cl)s3)CCCSCc3cccc(n3)CSCCNC(=O)C[C@H]3CCCN3C2=O)c1` [C3-X37-L1]: the “Residual thrombin activity: Top sample” value was 78.3 and the “Residual thrombin activity: Equilibrated sample” value stood at 49.4.

As for `O=C1C[C@H]2CCCN2C(=O)[C@H](Cc2ccccc2)NC(=O)[C@@H](NC(=O)c2ccc(Cl)s2)CCSC/C=C/CSCCN1` [C2-X5-L4], the “Residual thrombin activity: Top sample” value was 61.9 and the “Residual thrombin activity: Equilibrated sample” value was found to be 33.0.

Turning to `N#Cc1ccc(C[C@@H]2NC(=O)[C@@H](NC(=O)c3ccc(Cl)s3)CCCSC/C=C/CSCCNC(=O)C[C@H]3CCCN3C2=O)cc1` [C3-X35-L4], the “Residual thrombin activity: Top sample” value stood at 103.2 and the “Residual thrombin activity: Equilibrated sample” value is 97.2.

`N#Cc1ccc(C[C@@H]2NC(=O)[C@@H](NC(=O)c3ccc(Cl)s3)CSCc3ccccc3CSCCNC(=O)C[C@H]3CCCN3C2=O)cc1` [C1-X35-L6]: the “Residual thrombin activity: Top sample” value is on record as 90.5 and the “Residual thrombin activity: Equilibrated sample” value stood at 92.5.

For the molecule `CN1C(=O)[C@@H](NC(=O)c2ccc(Cl)s2)CCSCc2ccccc2CSCCNC(=O)C[C@H]2CCCN2C(=O)[C@@H]1Cc1ccccc1` [C2-X32-L6], the “Residual thrombin activity: Top sample” value is 94.2 and the “Residual thrombin activity: Equilibrated sample” value was 95.9.

Turning to `COc1ccc(C[C@@H]2NC(=O)[C@@H](NC(=O)c3ccc(Cl)s3)CCCSCc3cccc(c3)CSCCNC(=O)C[C@H]3CCCN3C2=O)cc1` [C3-X33-L5], the “Residual thrombin activity: Top sample” value came to 101.3 and the “Residual thrombin activity: Equilibrated sample” value came out at 103.0.

With `O=C1C[C@H]2CCCN2C(=O)[C@H](Cc2ccccc2)NC(=O)[C@@H](NC(=O)c2ccc(Cl)s2)CSC/C=C/CSCCN1` [C1-X5-L4], the “Residual thrombin activity: Top sample” value came out at 53.7 and the “Residual thrombin activity: Equilibrated sample” value is listed as 31.7.

As for `COc1ccc(C[C@@H]2NC(=O)[C@@H](NC(=O)c3ccc(Cl)s3)CCCSCc3cccc(n3)CSCCNC(=O)C[C@H]3CCCN3C2=O)cc1` [C3-X33-L1], the “Residual thrombin activity: Top sample” value is 99.7 and the “Residual thrombin activity: Equilibrated sample” value was found to be 94.6.

For the molecule `Cc1cccc(C[C@@H]2NC(=O)[C@@H](NC(=O)c3ccc(Cl)s3)CCCSCc3ccccc3CSCCNC(=O)C[C@H]3CCCN3C2=O)c1` [C3-X37-L6], the “Residual thrombin activity: Top sample” value is recorded as 92.8 and the “Residual thrombin activity: Equilibrated sample” value is reported as 79.2.

With `O=C1C[C@H]2CCCN2C(=O)[C@H](Cc2ccccc2)NC(=O)[C@@H](NC(=O)c2ccc(Cl)s2)CCCSCc2ccc(cc2)CSCCN1` [C3-X5-L3], the “Residual thrombin activity: Top sample” value was determined as 86.8 and the “Residual thrombin activity: Equilibrated sample” value was found to be 50.1.

As to `O=C1C[C@H]2CCCN2C(=O)[C@H](Cc2ccc(C(F)(F)F)cc2)NC(=O)[C@@H](NC(=O)c2ccc(Cl)s2)CCCSCc2cccc(c2)CSCCN1` [C3-X36-L5], the “Residual thrombin activity: Top sample” value is reported as 105.6 and the “Residual thrombin activity: Equilibrated sample” value worked out at 108.0.

As for `O=C1C[C@H]2CCCN2C(=O)[C@H](Cc2ccccc2)NC(=O)[C@@H](NC(=O)c2ccc(Cl)s2)CSCc2ccccc2CSCCN1` [C1-X5-L6], the “Residual thrombin activity: Top sample” value is listed as 82.2 and the “Residual thrombin activity: Equilibrated sample” value is on record as 60.8.

In the case of `N#Cc1ccc(C[C@@H]2NC(=O)[C@@H](NC(=O)c3ccc(Cl)s3)CCSCc3cccc(n3)CSCCNC(=O)C[C@H]3CCCN3C2=O)cc1` [C2-X35-L1], the “Residual thrombin activity: Top sample” value amounted to 95.8 and the “Residual thrombin activity: Equilibrated sample” value is given as 96.1.

With `O=C1C[C@H]2CCCN2C(=O)[C@@H](Cc2ccccc2)NC(=O)[C@@H](NC(=O)c2ccc(Cl)s2)CSC/C=C/CSCCN1` [C1-X31-L4], the “Residual thrombin activity: Top sample” value amounted to 96.8 and the “Residual thrombin activity: Equilibrated sample” value was 93.6.

Regarding `Cc1cccc(C[C@@H]2NC(=O)[C@@H](NC(=O)c3ccc(Cl)s3)CCSC/C=C/CSCCNC(=O)C[C@H]3CCCN3C2=O)c1` [C2-X37-L4], the “Residual thrombin activity: Top sample” value was 90.6 and the “Residual thrombin activity: Equilibrated sample” value is listed as 77.5.
